Columns and labels:
ONS-76 cells [1] = test: Spheroid invasion, 3D culture; format: cell-based, human; conditions: ONS-76, 1 µM, from day 7
Procedure: (§1) Figure 4 C29 reduces proliferation, migration, and invasion of naïve MB cells. (A) Proliferation of Daoy, ONS-76, HD-MB03, and D341Med wild-type cells after treatment with 1 μM C29 or the control (DMSO), n = 3. (B) Clonogenic assay on Daoy (n = 4), ONS-76 (n = 3) and HD -MB03 (n = 5) cells after treatment with control (DMSO) or C29 (1 μM or 2.5 μM). Scale = 500 μm. (C) Cell migration through the Boyden chamber of Daoy and ONS-76 cells specifically attracted by 200 ng/mL CXCL8. Results are expressed as percentage of control (DMSO) (n = 3). Scale = 1000 μm. (D) Spheroid invasion using 3D culture cell assays on Daoy (n = 4) and ONS-76 cells (n = 3) treated with control (DMSO) or C29 at a concentration of 1 μM on day 0, 1, and 2. Results are expressed as percentage of day 0, n = 4. Scale = 500 μm. Statistics were performed using Student t-test for 2 comparisons only or ANOVA test for multiple comparisons. * p < 0.05, ** p < 0.01, *** p < 0.001. […]
(§2) each month by using PlasmoTest Kit (#10L07‐MM, InvivoGen, Toulouse, France). Daoy and ONS‐76 belong to the Shh genetic subgroup, D341‐Med and HD‐MB03 to group 3. […]
(§3) (1, 2∙5, 5μM) for 48 hours. […]
(§4) 5000 cells were plated in 48 multi‐well plates coated with agarose 0∙8%. […] Images were recorded each day with the Evos XL Core Cell Imaging system (Thermo Fisher).

Daoy cells [2] = test: Spheroid invasion, 3D culture; format: cell-based, human; conditions: 1 µM, from day 2
Procedure: as §1, §2, §3, §4

HR1 cells = test: Clonogenic assay; format: cell-based, human
Procedure: Figure 8 C29 is efficient on radioresistant MB cell lines. (A) Cell death after 48 h of treatment with control (DMSO, CT) or C29 1, 2.5, or 5 µM on radiation-resistant cells (RR) and normal cells (N), n = 3. Statistics were performed using the one-way method ANOVA. * p < 0.05, ** p < 0.01, *** p < 0.001. For this figure, DR1 = D1, DR2 = D2, HR1 = H1, HR2 = H2, and C8D1A = C8. (B) Proliferation of DR1/DR2 (A) and HR1/HR2 (B) radio-resistant cells after 1 µM C29 treatment or control (DMSO), n = 3. (C) Clonogenic assay on DR1, DR2 (n = 3) and HR1, HR2 (n = 3) cells after treatment with control (DMSO) or C29 (1 µM or 2.5 µM). (D) Cell migration through the Boyden chamber of DR1 and DR2 cells specifically attracted by 200 ng/mL CXCL8. Cells were treated with control (DMSO) or C29 (1 and 2.5 µM). Results are expressed as percentage of control (n = 3). Scale = 1000 μm. Statistics were performed using Student t-test for 2 comparisons only or ANOVA test for multiple comparisons. * p < 0.05, ** p < 0.01, *** p < 0.001. […]
each month by using PlasmoTest Kit (#10L07‐MM, InvivoGen, Toulouse, France). […]
150 Daoy/DR1/DR2/ ONS ‐ 76 and 300 HD ‐ MB03/HR1/HR2 cells were seeded in trip‐ licate in 6‐well plates in the presence or absence of treatment (1 or 2∙5μM MCK140 or DMSO as control). […] The number of clones was quantified using ImageJ software. […]

Lipophilicity (log D) = format: physicochemical; conditions: source not stated
[3] = test system: uveal melanoma cells (Mel202); parameters: method as in PMID 24676409; conditions: Mel202, low expression of CXCR1/2; cited from earlier work
ONS-76 cells [4] = test: Clonogenic assay; format: cell-based, human
Procedure: as §1, §2
(§5) 150 Daoy/DR1/DR2/ ONS ‐ 76 and 300 HD ‐ MB03/HR1/HR2 cells were seeded in trip‐ licate in 6‐well plates in the presence or absence of treatment (1 or 2∙5μM […] or DMSO as control). On day 9 (Daoy/ONS‐76) and day 11 (HD ‐MB03), cells were fixed in ice‐cold absolute ethanol (Sigma) for 20 min, washed with PBS and then stained with Giemsa 50% for 30 min. The number of clones was quantified using ImageJ software. We only considered clones containing more than 50 cells. […]
Violet. […]
(§6) 5000 cells were plated in 48 multi‐well plates coated with agarose 0∙8%. After two days, spheroids were mixed with 100μl of matrigel mix (200μl of matrigel (Corning Mat‐ rigel Matrix, Fontenay‐sous‐Bois, France), 100 μl collagen I (8 mg/ml, Corning), 80 μl HEPES 1M and 320μl respective medium) in 12 multi‐well plates. […]

Daoy cells [5] = test: Clonogenic assay; format: cell-based, human; conditions: 1 µM
Procedure: as §1, §2, §5
Violet. […]
as §6

HD-MB03 cells = test: Clonogenic assay; format: cell-based, human; conditions: HD-MB03, 1 µM
Procedure: as §1, §2, §5
Violet. […]
as §6

For O=C(Nc1cccc(Cl)c1)Nc1nc2ccc([N+](=O)[O-])cc2s1 [C29, 1-(3-chlorophenyl)-3-(6-nitrobenzo[d]thiazol-2-yl) urea], the Spheroid invasion ability (ONS-76 cells [1]) was “affected the invasion ability”, the Spheroid invasion ability (Daoy cells [2]) was “affected the invasion ability” and the Clone formation (HR1 cells; HR1, 1 µM) was “reduced the number of clones”. The Clone formation (HR1 cells; HR1, 2.5 µM) was “extinguished them”, the logD (Lipophilicity (log D)) was about 3 and the “Effect on proliferation and survival” value [3] was “no effect”. For the same compound, the Clone formation (ONS-76 cells [4]; ONS-76, 1 µM) was “some clones were maintained”, the Clone formation (ONS-76 cells [4]; ONS-76, 2.5 µM) was “disappeared completely” and the Clone formation (Daoy cells [5]) was “inhibited clone formation”. The Clone formation (HD-MB03 cells) was “inhibited clone formation”.

Reference: publication PMC9738107, “Targeting of the ELR+CXCL/CXCR1/2 Pathway Is a Relevant Strategy for the Treatment of Paediatric Medulloblastomas” (Cells, 2022)
